Measurements as given in patent publication US20080009418A1, “Selective Inhibitors” (Alchemia LTD., priority 2004, published 2008).

Legend:
Human δ-opioid (DOP) = target: T1, Human δ-opioid (DOP) (Homo sapiens, UniProt P41143); assay: Radioligand binding, human δ-opioid (DOP) membranes, FlashPlate, [3H]-Bremazocine; details: compound at 10 μM, [3H]-Bremazocine
T1 construct: purchased Perkin Elmer Biosignal
Outline: (§1)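 Cloned human receptor membranes were coated onto FlashPlate wells and incubated with radioligand and compound (added from a 0.5 mM DMSO daughter plate) for 1 hour at room temperature in the dark. Scintillation counting gave percent inhibition, with DMSO defining total and reference ligand defining non-specific binding.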

Human Melanocortin (MC3) = target: T2, Human Melanocortin (MC3) (Homo sapiens, UniProt P41968); assay: Radioligand binding, human melanocortin MC3 membranes, FlashPlate, [125I]-NDP-αMSH; details: compound at 10 μM, [125I]-NDP-αMSH
T2 construct: purchased Perkin Elmer Biosignal
T2 sequence (P41968 whole entry): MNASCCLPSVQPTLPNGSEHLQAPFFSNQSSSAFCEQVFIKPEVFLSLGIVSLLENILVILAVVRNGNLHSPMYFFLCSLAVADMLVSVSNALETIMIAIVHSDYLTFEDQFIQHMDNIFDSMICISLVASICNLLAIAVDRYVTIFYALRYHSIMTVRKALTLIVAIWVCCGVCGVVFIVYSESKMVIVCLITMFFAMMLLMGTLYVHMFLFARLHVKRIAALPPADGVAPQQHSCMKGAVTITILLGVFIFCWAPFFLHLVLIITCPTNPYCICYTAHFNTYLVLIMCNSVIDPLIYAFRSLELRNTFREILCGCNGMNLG
Outline: as §1

Human κ-Opioid (KOP) = target: T3, Human κ-Opioid (KOP) (Homo sapiens, UniProt P41145); assay: Radioligand binding, human κ-opioid (KOP) membranes, filtration, [3H]-Diprenorphine; details: compound at 10 μM, [3H]-Diprenorphine
T3 construct: purchased Perkin Elmer Biosignal
T3 sequence (P41145 whole entry): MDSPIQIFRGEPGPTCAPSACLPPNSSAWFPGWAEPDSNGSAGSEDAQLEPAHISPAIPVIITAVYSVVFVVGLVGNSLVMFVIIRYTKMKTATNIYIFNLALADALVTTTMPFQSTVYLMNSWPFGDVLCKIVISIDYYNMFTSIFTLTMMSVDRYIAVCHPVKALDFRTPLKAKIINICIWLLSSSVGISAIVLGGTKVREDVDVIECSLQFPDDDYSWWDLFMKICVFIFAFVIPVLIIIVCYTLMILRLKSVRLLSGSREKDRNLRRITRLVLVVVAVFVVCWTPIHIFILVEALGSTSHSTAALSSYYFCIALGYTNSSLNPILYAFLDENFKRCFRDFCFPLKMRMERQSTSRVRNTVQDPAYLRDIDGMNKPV
Outline: (§2)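 Percent inhibition of radioligand binding measured on recombinant human membranes: NK1 with [125I]-Substance P, KOP with [3H]-Diprenorphine. Incubation 1 h at room temperature, then harvest onto 0.3% PEI-soaked filters, cold Tris-HCl pH 7.4 washes and scintillation counting; non-specific binding from reference ligand wells.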

Human opioid (ORL1) = target: T4, Human opioid (ORL1) (Homo sapiens, UniProt P41146); assay: Radioligand binding, human opioid ORL1 membranes, FlashPlate, [125I]-Nociceptin; details: compound at 10 μM, [125I]-Nociceptin
T4 construct: purchased Perkin Elmer Biosignal
T4 sequence (P41146 whole entry): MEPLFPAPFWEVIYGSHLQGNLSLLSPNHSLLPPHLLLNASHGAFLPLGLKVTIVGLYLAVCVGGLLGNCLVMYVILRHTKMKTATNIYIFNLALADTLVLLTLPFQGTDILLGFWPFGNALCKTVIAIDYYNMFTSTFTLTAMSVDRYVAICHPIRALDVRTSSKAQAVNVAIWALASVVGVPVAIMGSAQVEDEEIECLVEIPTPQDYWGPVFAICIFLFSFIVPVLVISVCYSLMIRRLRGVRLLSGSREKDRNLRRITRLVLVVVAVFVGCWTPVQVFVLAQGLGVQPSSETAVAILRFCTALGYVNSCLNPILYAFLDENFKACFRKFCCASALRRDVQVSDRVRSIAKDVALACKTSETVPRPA
Outline: as §1

[1] = target: T5, Human neuropeptide Y (NPY-Y1) (Homo sapiens, UniProt P25929); assay: Radioligand binding, human neuropeptide Y NPY-Y1 membranes, FlashPlate, [125I]-PYY; details: compound at 10 μM, [125I]-PYY
T5 construct: purchased Perkin Elmer Biosignal
T5 sequence (P25929 1-384): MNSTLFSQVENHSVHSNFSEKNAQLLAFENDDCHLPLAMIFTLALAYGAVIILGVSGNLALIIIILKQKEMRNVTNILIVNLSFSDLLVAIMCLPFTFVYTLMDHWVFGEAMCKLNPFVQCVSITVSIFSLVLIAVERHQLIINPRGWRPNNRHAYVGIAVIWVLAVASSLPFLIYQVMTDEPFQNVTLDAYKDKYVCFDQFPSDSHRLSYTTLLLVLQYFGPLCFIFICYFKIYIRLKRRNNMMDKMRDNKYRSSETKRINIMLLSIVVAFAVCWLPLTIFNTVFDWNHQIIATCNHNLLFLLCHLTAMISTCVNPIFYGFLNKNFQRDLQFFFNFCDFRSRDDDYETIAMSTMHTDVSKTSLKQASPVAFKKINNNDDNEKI
Outline: as §1

Human μ-opioid (MOP) = target: T6, Human μ-opioid (MOP) (Homo sapiens, UniProt P35372); assay: Radioligand binding, human μ-opioid (MOP) membranes, FlashPlate, [3H]-Naloxone; details: compound at 10 μM, [3H]-Naloxone
T6 construct: purchased Perkin Elmer Biosignal
T6 sequence (P35372 whole entry): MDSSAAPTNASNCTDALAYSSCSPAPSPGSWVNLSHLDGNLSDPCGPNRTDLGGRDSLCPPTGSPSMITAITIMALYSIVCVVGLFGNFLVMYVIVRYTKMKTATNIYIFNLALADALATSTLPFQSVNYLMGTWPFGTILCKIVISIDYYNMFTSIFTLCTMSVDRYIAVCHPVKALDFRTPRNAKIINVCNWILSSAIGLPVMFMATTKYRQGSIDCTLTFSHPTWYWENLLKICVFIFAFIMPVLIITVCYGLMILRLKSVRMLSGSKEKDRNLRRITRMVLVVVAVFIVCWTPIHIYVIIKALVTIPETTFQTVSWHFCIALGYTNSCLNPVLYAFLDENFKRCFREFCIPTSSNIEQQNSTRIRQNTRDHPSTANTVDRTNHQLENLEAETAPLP
Outline: as §1

Human Melanocortin (MC4) = target: T7, Human Melanocortin (MC4) (Homo sapiens, UniProt P32245); assay: Radioligand binding, human melanocortin MC4 membranes, FlashPlate, [125I]-NDP-αMSH; details: compound at 10 μM, [125I]-NDP-αMSH
T7 construct: purchased Perkin Elmer Biosignal
T7 sequence (P32245 whole entry): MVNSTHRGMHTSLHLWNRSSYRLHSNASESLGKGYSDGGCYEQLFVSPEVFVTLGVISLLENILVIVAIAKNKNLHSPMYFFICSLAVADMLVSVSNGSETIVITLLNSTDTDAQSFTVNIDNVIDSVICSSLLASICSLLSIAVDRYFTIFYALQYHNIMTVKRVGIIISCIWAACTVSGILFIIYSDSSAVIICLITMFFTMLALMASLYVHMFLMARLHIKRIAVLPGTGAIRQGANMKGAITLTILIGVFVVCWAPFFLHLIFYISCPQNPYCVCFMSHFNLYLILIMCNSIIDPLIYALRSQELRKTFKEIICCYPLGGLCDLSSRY
Outline: as §1

Human melanocortin (MC5) = target: T8, Human melanocortin (MC5) (Homo sapiens, UniProt P33032); assay: Radioligand binding, human melanocortin MC5 membranes, FlashPlate, [125I]-NDP-αMSH; details: compound at 10 μM, [125I]-NDP-αMSH
T8 construct: purchased Perkin Elmer Biosignal
T8 sequence (P33032 whole entry): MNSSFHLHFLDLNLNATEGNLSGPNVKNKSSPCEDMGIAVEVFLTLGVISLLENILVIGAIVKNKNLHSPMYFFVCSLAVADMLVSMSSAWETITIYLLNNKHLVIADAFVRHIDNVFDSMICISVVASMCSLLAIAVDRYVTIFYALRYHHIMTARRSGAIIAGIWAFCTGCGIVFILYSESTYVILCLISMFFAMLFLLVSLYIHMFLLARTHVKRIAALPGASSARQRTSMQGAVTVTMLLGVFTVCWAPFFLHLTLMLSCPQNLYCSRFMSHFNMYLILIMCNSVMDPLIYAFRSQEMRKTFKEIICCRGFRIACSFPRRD
Outline: as §1

[2] = target: T9, Human melanin-concentrating hormone (MCH1) (Homo sapiens, UniProt Q99705); assay: Radioligand binding, human melanin-concentrating hormone MCH1 membranes, FlashPlate, [125I]-S36057; details: compound at 10 μM; for A6: inhibition of radioligand binding, human melanin-concentrating hormone (MCH1): [125I]-S36057
T9 construct: purchased Perkin Elmer Biosignal
T9 sequence (Q99705 whole entry): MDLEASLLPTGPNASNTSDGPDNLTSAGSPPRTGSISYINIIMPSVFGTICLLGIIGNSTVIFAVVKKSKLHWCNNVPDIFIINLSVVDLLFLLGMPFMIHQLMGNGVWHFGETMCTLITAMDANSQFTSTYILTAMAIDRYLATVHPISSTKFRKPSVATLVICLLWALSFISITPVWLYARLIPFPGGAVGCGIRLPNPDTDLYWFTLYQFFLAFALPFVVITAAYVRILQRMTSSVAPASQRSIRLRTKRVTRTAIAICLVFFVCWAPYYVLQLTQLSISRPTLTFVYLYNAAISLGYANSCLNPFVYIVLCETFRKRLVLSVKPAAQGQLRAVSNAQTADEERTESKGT
Outline: as §1

Human neurokinin (NK1) = target: T10, Human neurokinin (NK1) (Homo sapiens, UniProt P25103); assay: Radioligand binding, human neurokinin NK1 membranes, filtration, [125I]-Substance P; details: compound at 10 μM, [125I]-Substance P
T10 construct: purchased Perkin Elmer Biosignal
T10 sequence (P25103 whole entry): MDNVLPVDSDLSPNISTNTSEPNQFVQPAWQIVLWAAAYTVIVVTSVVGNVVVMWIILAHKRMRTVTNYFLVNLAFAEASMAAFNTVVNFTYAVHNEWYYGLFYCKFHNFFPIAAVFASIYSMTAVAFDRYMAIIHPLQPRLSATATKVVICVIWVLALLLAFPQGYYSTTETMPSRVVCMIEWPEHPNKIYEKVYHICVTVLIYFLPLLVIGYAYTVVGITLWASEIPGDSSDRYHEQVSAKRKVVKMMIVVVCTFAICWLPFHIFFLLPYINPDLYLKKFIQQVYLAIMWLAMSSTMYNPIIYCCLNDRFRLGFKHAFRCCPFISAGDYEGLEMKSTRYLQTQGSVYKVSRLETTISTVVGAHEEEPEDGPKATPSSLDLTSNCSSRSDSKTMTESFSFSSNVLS
Outline: as §2

Mouse urotensin (mUR2) = target: T11, Mouse urotensin (mUR2) (Mus musculus, UniProt Q8VIH9); assay: Radioligand binding, mouse urotensin mUR2 membranes, FlashPlate, [125I]-Urotensin II; details: compound at 10 μM, [125I]-Urotensin II
T11 construct: purchased Perkin Elmer Biosignal
T11 sequence (Q8VIH9 1-385): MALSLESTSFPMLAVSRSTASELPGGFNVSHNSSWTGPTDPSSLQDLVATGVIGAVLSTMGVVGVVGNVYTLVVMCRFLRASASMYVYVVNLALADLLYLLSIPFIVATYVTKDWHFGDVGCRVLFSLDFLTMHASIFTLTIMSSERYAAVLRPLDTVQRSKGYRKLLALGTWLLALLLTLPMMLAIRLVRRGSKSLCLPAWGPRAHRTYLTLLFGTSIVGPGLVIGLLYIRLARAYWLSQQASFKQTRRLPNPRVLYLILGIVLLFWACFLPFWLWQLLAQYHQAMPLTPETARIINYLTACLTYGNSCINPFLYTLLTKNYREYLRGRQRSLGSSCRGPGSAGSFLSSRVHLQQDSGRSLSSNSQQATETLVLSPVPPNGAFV
Outline: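 Cloned mouse urotensin (mUR2) receptor membranes from Perkin Elmer Biosignal were immobilized in FlashPlate microplates using a proprietary coating. Each well got 19.5 μl buffer, then 0.5 μl of DMSO, reference ligand, or compound. Adding 5 μl of [125I]-Urotensin II, diluted to 5× final concentration in binding buffer, started binding. Plates were sealed with TopSeal-A and incubated 1 hour at room temperature in the dark. Wells were counted for 30 seconds each on a TopCount after a 60-second delay, and percentage inhibition was calculated.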

T1 sequence (P41143 whole entry): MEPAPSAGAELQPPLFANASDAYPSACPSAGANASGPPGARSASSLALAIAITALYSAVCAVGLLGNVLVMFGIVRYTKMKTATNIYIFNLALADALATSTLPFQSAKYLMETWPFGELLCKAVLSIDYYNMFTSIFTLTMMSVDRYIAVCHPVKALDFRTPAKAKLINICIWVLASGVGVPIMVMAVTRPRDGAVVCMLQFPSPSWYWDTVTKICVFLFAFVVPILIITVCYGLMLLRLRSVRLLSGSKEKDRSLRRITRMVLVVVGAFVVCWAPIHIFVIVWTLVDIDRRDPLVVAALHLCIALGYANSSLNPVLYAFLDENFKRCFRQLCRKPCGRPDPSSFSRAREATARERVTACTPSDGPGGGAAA

SMILES | A1: inhibition of radioligand binding, human δ-opioid (DOP) (Human δ-opioid (DOP)) | A3: inhibition of radioligand binding, human melanocortin (MC3) (Human Melanocortin (MC3)) | A2: inhibition of radioligand binding, human κ-opioid (KOP) (Human κ-Opioid (KOP)) | A10: inhibition of radioligand binding, human opioid (ORL1) (Human opioid (ORL1)) | A9: inhibition of radioligand binding, human neuropeptide Y (NPY-Y1) [1] | A7: inhibition of radioligand binding, human μ-opioid (MOP) (Human μ-opioid (MOP)) | A4: inhibition of radioligand binding, human melanocortin (MC4) (Human Melanocortin (MC4)) | A5: inhibition of radioligand binding, human melanocortin (MC5) (Human melanocortin (MC5)) | A6: inhibition of radioligand binding, human melanin-concentrating hormone (MCH1) [2] | A8: inhibition of radioligand binding, human neurokinin (NK1) (Human neurokinin (NK1)) | A11: inhibition of radioligand binding, mouse urotensin (mUR2) (Mouse urotensin (mUR2)) | A1: inhibition of radioligand binding (Human δ-opioid (DOP); human DOP membranes) | A3: inhibition of radioligand binding (Human Melanocortin (MC3); human MC3 membranes) | A2: inhibition of radioligand binding (Human κ-Opioid (KOP); human KOP membranes) | A9: inhibition of radioligand binding ([1]; human NPY-Y1 membranes) | A4: inhibition of radioligand binding (Human Melanocortin (MC4); human MC4 membranes) | A5: inhibition of radioligand binding (Human melanocortin (MC5); human MC5 membranes) | A8: inhibition of radioligand binding (Human neurokinin (NK1); human NK1 membranes) | A11: inhibition of radioligand binding (Mouse urotensin (mUR2); mouse mUR2 membranes) | further results
CSC1OC(COCc2ccc3ccccc3c2)C(O)C(OCc2ccc3ccccc3c2)C1NC(=O)CNC(=N)N (stereo not shown) [compound 317] | − (“−” indicates less than 50% inhibition at 10 μM) | − (“−” indicates less than 50% inhibition at 10 μM) | − (“−” indicates less than 50% inhibition at 10 μM) | − (“−” indicates less than 50% inhibition at 10 μM) | − (“−” indicates less than 50% inhibition at 10 μM) | − (“−” indicates less than 50% inhibition at 10 μM) | − (“−” indicates less than 50% inhibition at 10 μM) | + (“+” indicates greater than 50% inhibition at 10 μM) | − (“−” indicates less than 50% inhibition at 10 μM) | + (“+” indicates greater than 50% inhibition at 10 μM) | − (“−” indicates less than 50% inhibition at 10 μM) |  |  |  |  |  |  |  |  | 
COCC1OC(OCc2ccc(Cl)cc2)C(NC(=O)CCCNC(=N)N)C(OCc2ccc(Cl)cc2)C1O (stereo not shown) [compound 204] |  |  |  |  |  |  |  |  |  |  |  |  |  |  |  |  |  |  |  | A1: inhibition of radioligand binding (Human δ-opioid (DOP); FlashPlate): − (“−” indicates less than 50% inhibition at 10 μM); A3: inhibition of radioligand binding (Human Melanocortin (MC3); FlashPlate): + (“+” indicates greater than 50% inhibition at 10 μM); A2: inhibition of radioligand binding (Human κ-Opioid (KOP); filtration): − (“−” indicates less than 50% inhibition at 10 μM); A10: inhibition of radioligand binding (Human opioid (ORL1); FlashPlate): − (“−” indicates less than 50% inhibition at 10 μM); A9: inhibition of radioligand binding ([1]; FlashPlate): − (“−” indicates less than 50% inhibition at 10 μM); A7: inhibition of radioligand binding (Human μ-opioid (MOP); FlashPlate): − (“−” indicates less than 50% inhibition at 10 μM); A4: inhibition of radioligand binding (Human Melanocortin (MC4); FlashPlate): + (“+” indicates greater than 50% inhibition at 10 μM); A5: inhibition of radioligand binding (Human melanocortin (MC5); FlashPlate): + (“+” indicates greater than 50% inhibition at 10 μM); A6: inhibition of radioligand binding ([2]; [125I]-S36057, FlashPlate): + (“+” indicates greater than 50% inhibition at 10 μM); A8: inhibition of radioligand binding (Human neurokinin (NK1); filtration): + (“+” indicates greater than 50% inhibition at 10 μM); A11: inhibition of radioligand binding (Mouse urotensin (mUR2); FlashPlate): − (“−” indicates less than 50% inhibition at 10 μM)
N=C(N)NCC(=O)NC1C(OCc2ccc(Cl)cc2)OC(COCc2ccc(Cl)cc2)C(O)C1OCc1ccc(-c2ccccc2)cc1 (stereo not shown) [compound 425] |  |  |  |  |  |  |  |  |  |  |  | − (“−” indicates less than 50% inhibition at 10 μM) | + (“+” indicates greater than 50% inhibition at 10 μM) | − (“−” indicates less than 50% inhibition at 10 μM) | − (“−” indicates less than 50% inhibition at 10 μM) | + (“+” indicates greater than 50% inhibition at 10 μM) | + (“+” indicates greater than 50% inhibition at 10 μM) | + (“+” indicates greater than 50% inhibition at 10 μM) | − (“−” indicates less than 50% inhibition at 10 μM) | A10: inhibition of radioligand binding (Human opioid (ORL1); human ORL1 membranes): + (“+” indicates greater than 50% inhibition at 10 μM); A7: inhibition of radioligand binding (Human μ-opioid (MOP); human MOP membranes): − (“−” indicates less than 50% inhibition at 10 μM); A6: inhibition of radioligand binding ([2]; [125I]-S36057, human MCH1 membranes): + (“+” indicates greater than 50% inhibition at 10 μM)
NCCC(=O)NC1C(OCc2ccccc2)OC(COCc2ccccc2)C(O)C1OCc1ccccc1 (stereo not shown) [compound 370] | − (“−” indicates less than 50% inhibition at 10 μM) | − (“−” indicates less than 50% inhibition at 10 μM) | − (“−” indicates less than 50% inhibition at 10 μM) | − (“−” indicates less than 50% inhibition at 10 μM) | − (“−” indicates less than 50% inhibition at 10 μM) | − (“−” indicates less than 50% inhibition at 10 μM) | − (“−” indicates less than 50% inhibition at 10 μM) | − (“−” indicates less than 50% inhibition at 10 μM) | − (“−” indicates less than 50% inhibition at 10 μM) | + (“+” indicates greater than 50% inhibition at 10 μM) | − (“−” indicates less than 50% inhibition at 10 μM) |  |  |  |  |  |  |  |  | 
NCCCC(=O)NC1C(OCc2ccc3ccccc3c2)OC(COCc2ccc(Cl)cc2)C(O)C1OCc1ccc(Cl)cc1 (stereo not shown) [compound 392] |  |  |  |  |  |  |  |  |  |  |  | − (“−” indicates less than 50% inhibition at 10 μM) | + (“+” indicates greater than 50% inhibition at 10 μM) | − (“−” indicates less than 50% inhibition at 10 μM) | − (“−” indicates less than 50% inhibition at 10 μM) | + (“+” indicates greater than 50% inhibition at 10 μM) | + (“+” indicates greater than 50% inhibition at 10 μM) | + (“+” indicates greater than 50% inhibition at 10 μM) | − (“−” indicates less than 50% inhibition at 10 μM) | A10: inhibition of radioligand binding (Human opioid (ORL1); human ORL1 membranes, 10 µM): − (“−” indicates less than 50% inhibition at 10 μM); A7: inhibition of radioligand binding (Human μ-opioid (MOP); human MOP membranes, 10 µM): − (“−” indicates less than 50% inhibition at 10 μM); A6: inhibition of radioligand binding ([2]; [125I]-S36057, human MCH1 membranes, 10 µM): − (“−” indicates less than 50% inhibition at 10 μM)
